# Source: patent publication US11357813B2, “Composition comprising tannins” (ABOCA S.P.A SOCIETÀ AGRICOLA, priority 2015, dated 2022)
# Tests used:
# [1] = test system: white male mouse oropharynx sections (oral mucosa); assay: FeCl3 staining of oropharynx sections: interaction of tannin-containing extracts and compositions with the oral mucosa; assay type: binding; settings: sections treated 1 hour with 10%, 5%, 1% and 0.1% in distilled water (w/v); 2% FeCl3 for 15 minutes; optical microscope 40x
# Protocol: 1. Assessment of interaction among plant extracts containing tannins, plant extracts not containing tannins and oral mucosa.
# 2 μm-thick sections of untreated white male mouse oropharynx, fixed in formalin with 10% phosphate buffer, were used.
# Separate deparaffinized and hydrated sections were treated for 1 hour, respectively with
# 1—10%, 5%, 1% and 0.1% tannic acid in distilled water (weight/volume)
# 2—10%, 5%, 1% and 0.1% Agrimonia eupatoria extract in distilled water (w/v), equal to, respectively, 100 mg/ml, 50 mg/ml, 10 mg/ml and 1 mg/ml of Agrimonia eupatoria
# 3—10%, 5%, 1% and 0.1% Hamamelis Virginiana extract in distilled water (w/v), equal to, respectively, 100 mg/ml, 50 mg/ml, 10 mg/ml and 1 mg/ml of Hamamelis Virginiana
# 4—10%, 5%, 1% and 0.1% Aloe vera extract in distilled water (w/v)
# 5—10%, 5%, 1% and 0.1% Commiphora myrrha in distilled water (w/v)
# 6—composition of the invention in the form of tablets (composition example B) in a 10%, 20% 30% and 50% solution, equal to, respectively, 6.67 mg/ml, 13.34 mg/ml, 20.01 mg/ml and 33.35 mg/ml of Agrimonia eupatoria
# 7—composition of the invention in the form of spray (composition example C) in a 10%, 20%, 50% and 100% solution, equal to, respectively, 3.3 mg/ml, 6.6 mg/ml, 16.5 mg/ml and 33 mg/ml of Agrimonia eupatoria, […]
# The sections were analyzed at the optical microscope (40× magnification) and photographed with a digital camera.
# laboratory animals = settings: cited from earlier work
structure (smiles),measurement,setting,value
"O=C(OC[C@H]1O[C@@H](OC(=O)c2cc(O)c(O)c(OC(=O)c3cc(O)c(O)c(O)c3)c2)[C@H](OC(=O)c2cc(O)c(O)c(OC(=O)c3cc(O)c(O)c(O)c3)c2)[C@@H](OC(=O)c2cc(O)c(O)c(OC(=O)c3cc(O)c(O)c(O)c3)c2)[C@@H]1OC(=O)c1cc(O)c(O)c(OC(=O)c2cc(O)c(O)c(O)c2)c1)c1cc(O)c(O)c(OC(=O)c2cc(O)c(O)c(O)c2)c1 [Sample 1, tannic acid]",FeCl3 staining of oropharynx sections,[1],Staining intensity is dependent on concentration
same,tumour finding after subcutaneous administration,laboratory animals,onset of hepatic tumours
